Test results reported in BigSolDB 2.1.

N=C(N)N.O=[N+]([O-])O
Details | solubility (mole fraction)
in acetone, 278.15 K | 0.0003
in acetone, 283.15 K | 0.0005
in acetone, 288.15 K | 0.0009
in acetone, 293.15 K | 0.0016
in acetone, 298.15 K | 0.0029
in acetone, 303.15 K | 0.0052
in acetone, 308.15 K | 0.0092
in acetone, 313.15 K | 0.0158
in acetone, 323.15 K | 0.0503
in ethanol, 278.05 K | 0.003
in ethanol, 283.15 K | 0.0037
in ethanol, 288.35 K | 0.0043
in ethanol, 293.15 K | 0.0051
in ethanol, 298.25 K | 0.0062
in ethanol, 303.25 K | 0.007
in ethanol, 308.25 K | 0.0081
in ethanol, 313.05 K | 0.0094
in ethanol, 318.05 K | 0.0108
in ethanol, 323.25 K | 0.0124
in ethanol, 328.35 K | 0.0143
in methanol, 278.25 K | 0.0063
in methanol, 283.25 K | 0.0075
in methanol, 288.25 K | 0.0092
in methanol, 293.25 K | 0.0107
in methanol, 298.35 K | 0.0126
in methanol, 303.15 K | 0.0148
in methanol, 308.35 K | 0.0174
in methanol, 313.15 K | 0.0198
in methanol, 318.25 K | 0.0227
in methanol, 323.35 K | 0.0264
in methanol, 328.05 K | 0.0305
in n-propanol, 278.25 K | 0.0009
in n-propanol, 283.25 K | 0.0013
in n-propanol, 288.25 K | 0.0017
in n-propanol, 293.15 K | 0.002
in n-propanol, 298.35 K | 0.0029
in n-propanol, 303.15 K | 0.0041
in n-propanol, 308.35 K | 0.0048
in n-propanol, 313.15 K | 0.0061
in n-propanol, 318.25 K | 0.0077
in n-propanol, 323.15 K | 0.0092
in n-propanol, 328.05 K | 0.012
in water, 278.25 K | 0.009
in water, 283.35 K | 0.0112
in water, 288.25 K | 0.0136
in water, 292.95 K | 0.0157
in water, 298.25 K | 0.019
in water, 303.15 K | 0.0222
in water, 308.35 K | 0.0262
in water, 313.05 K | 0.0302
in water, 318.25 K | 0.0349
in water, 323.25 K | 0.0401
in water, 328.35 K | 0.0463
in water, 332.85 K | 0.0511
